Test results reported in patent US10301294B2, “Compounds for the treatment of tuberculosis” (priority 2013, dated 2019).

Experiments:
[1] = tested on: carbon-starved M. tuberculosis H37Rv; assay: Non-replicating IC90 determination by luciferase (carbon-starved cells); assay type: cell-based; settings: luciferase; for Against carbon starved non-replicating Mtb IC99 (uM, luciferase) / IC99: None = inhibition did not reach 99%; for IC99 / IC90: Mycobacterium tuberculosis, H37RV; for IC99: 120 h, read-out: Against carbon starved non-replicating Mtb IC99 (uM, luciferase); for IC90: IC90 given in brackets beside IC99, read-out: Against carbon starved non-replicating Mtb IC90 (in brackets, luciferase)
[2] = tested on: replicating M. tuberculosis H37Rv; assay: microbe, parasite or virus in culture; assay type: cell-based; settings: None = inhibition did not reach 90%; for IC90: Mycobacterium tuberculosis, H37RV, read-out: Against Replicating Mtb IC90 (uM, GFP)

Row | SMILES | Against carbon starved non-replicating Mtb IC99 (uM, luciferase) [1] | IC90 [2] | IC99 [1] | Against Replicating Mtb IC90 (uM, GFP) [2] | IC90 [1]
1 | CSc1nnc(-c2ccccc2)o1 | None | > 250 µM |  |  | 
2 | CCSc1nnc(-c2ccccc2)o1 |  | 200 µM | 250 µM |  | 
3 | CCCCCCCCCCCCSc1nnc(-c2ccccc2)o1 |  | 125 µM | 62 µM |  | 
4 | Fc1ccc(CCSc2nnc(-c3ccccc3)o2)cc1 |  | 250 µM | 250 µM |  | 
5 | CCOC(=O)CSc1nnc(-c2ccccc2)o1 |  | 500 µM | 250 µM |  | 
6 | c1ccc(-c2nnc(SCC3CC3)o2)cc1 |  | 125 µM | 31 µM |  | 
7 | O=C(CSc1nnc(-c2ccccc2)o1)c1ccc(Br)cc1 | None | > 500 µM |  |  | 
8 | Fc1ccc(CSc2nnc(-c3ccc(Cl)cc3)o2)cc1 | None | > 500 µM |  |  | 
9 | Clc1ccc(-c2nnc(SCCC3OCCCO3)o2)cc1 |  | 62 µM | 8 µM |  | 
10 | Fc1ccc(CSc2nnc(-c3cccnc3)o2)cc1 |  | > 500 µM | 62 µM |  | 
11 | c1cncc(-c2nnc(SCCC3OCCCO3)o2)c1 | None | > 500 µM |  |  | 
12 | Fc1ccc(CSc2nnc(-c3ccncc3)o2)cc1 | None | > 500 µM |  |  | 
13 | c1cc(-c2nnc(SCCC3OCCCO3)o2)ccn1 | None | > 500 µM |  |  | 
14 | Clc1ccc(-c2nnc(SCc3ccccn3)o2)cc1 |  | 62 µM | 16 µM |  | 
15 | COCCSc1nnc(-c2ccc(Cl)cc2)o1 |  | 50 µM | 16 µM |  | 
16 | c1ccc(CSc2nnc(-c3cccnc3)o2)nc1 |  | > 500 µM | 250 µM |  | 
17 | COCCSc1nnc(-c2cccnc2)o1 | None | > 500 µM |  |  | 
18 | c1ccc(CSc2nnc(-c3ccncc3)o2)nc1 |  | > 500 µM | 500 µM |  | 
19 | COCCSc1nnc(-c2ccncc2)o1 |  | > 500 µM | 500 µM |  | 
20 | CS(=O)(=O)c1nnc(-c2ccccc2)o1 |  | 250 µM | 62 µM |  | 
21 | COCCS(=O)(=O)c1nnc(-c2ccc(Cl)cc2)o1 |  | > 500 µM | 250 µM |  | 
22 | c1ccc(-c2nnc(NCc3ccccn3)o2)cc1 | None | > 500 µM |  |  | 

Row | SMILES | Against carbon starved non-replicating Mtb IC99 (uM, luciferase) [1] | IC90 [2] | IC99 [1] | Against Replicating Mtb IC90 (uM, GFP) [2] | IC90 [1]
23 | c1ccc(-c2nnc(OCc3ccccn3)o2)cc1 | None | > 500 µM |  |  | 
24 | CS(=O)(=O)c1nnc(-c2ccc(Cl)cc2)o1 |  | 125 µM | 8 µM |  | 
25 | Clc1ccc(-c2nnc(NCc3ccccn3)o2)cc1 |  | 500 µM | 125 µM |  | 
26 | Clc1ccc(-c2nnc(OCc3ccccn3)o2)cc1 |  | 250 µM | 250 µM |  | 
27 | CN1CCCCC1COc1nnc(-c2ccc(Cl)cc2)o1 (centres unmarked) |  | > 500 µM | 500 µM |  | 
28 | COCCOc1nnc(-c2ccc(Cl)cc2)o1 |  | > 500 µM | 250 µM |  | 
29 | COCCSc1nnc(-c2ccc(C)cc2)o1 |  | 31 µM | 31 µM |  | 
30 | Cc1ccc(-c2nnc(SCc3ccccn3)o2)cc1 |  | 31 µM | 16 µM |  | 
31 | Cc1ccc(-c2nnc([S+]([O-])Cc3cccc[n+]3[O-])o2)cc1 (centres unmarked) |  | 125 µM | 62 µM |  | 
32 | COCCS(=O)(=O)c1nnc(-c2ccc(C)cc2)o1 |  | 31 µM | 8 µM |  | 
33 | Cc1cccc(CSc2nnc(-c3ccc(Cl)cc3)o2)n1 |  | 62 µM | 31 µM |  | 
34 | COc1ccc(-c2nnc(SCc3ccccn3)o2)cc1 |  | 62 µM | 16 µM |  | 
35 | C#CCSc1nnc(-c2ccc(Cl)cc2)o1 |  | 31 µM | 16 µM |  | 
36 | Oc1ccc(-c2nnc(SCc3ccccn3)o2)cc1 |  | 125 µM | 62 µM |  | 
37 | OCC#CCSc1nnc(-c2ccc(Cl)cc2)o1 |  | 62 µM | 8 µM |  | 
38 | CCOC(=O)COc1ccc(-c2nnc(SCc3ccccn3)o2)cc1 |  |  | 31 µM | None | 
39 | COC(=O)c1ccc(CSc2nnc(-c3ccc(Cl)cc3)o2)nc1 |  |  | 16 µM | None | 
40 | COc1ccccc1-c1nnc(SCc2ccccn2)o1 |  |  | 125 µM | None | 
41 | Oc1cccc(-c2nnc(SCc3ccccn3)o2)c1 |  | 125 µM | 62 µM |  | 
42 | COC(=O)CCCOc1ccc(-c2nnc(SCc3ccccn3)o2)cc1 |  | 500 µM | 250 µM |  | 
43 | CC(C)(C)c1ccc(CSc2nnc(-c3ccc(Cl)cc3)o2)cc1 |  | 250 µM | 62 µM |  | 
44 | COC(=O)c1ccc(C[S+]([O-])c2nnc(-c3ccc(Cl)cc3)o2)nc1 (centres unmarked) |  | 125 µM | 4 µM |  | 

Row | SMILES | Against carbon starved non-replicating Mtb IC99 (uM, luciferase) [1] | IC90 [2] | IC99 [1] | Against Replicating Mtb IC90 (uM, GFP) [2] | IC90 [1]
45 | COC(=O)CCCOc1ccc(CSc2nnc(-c3ccc(F)cc3)o2)nc1 |  | 125 µM | 31 µM |  | 
46 | [N-]=[N+]=NOCCNC(=O)CCCOc1ccc(-c2nnc([S+]([O-])Cc3ccccn3)o2)cc1 (centres unmarked) |  | 125 µM | 62 µM |  | 
47 | [N-]=[N+]=NCCOCCNC(=O)CCCOc1ccc(CSc2nnc(-c3ccc(F)cc3)o2)nc1 | None | 125 µM |  |  | 
48 | [N-]=[N+]=NCCOCCNC(=O)c1ccc(C[S+]([O-])c2nnc(-c3ccc(Cl)cc3)o2)nc1 (centres unmarked) |  | 250 µM | 62 µM |  | 
49 | [N-]=[N+]=NCCOCCNC(=O)CCCOc1ccc(C[S+]([O-])c2nnc(-c3ccc(F)cc3)o2)nc1 (centres unmarked) |  | 125 µM | 31 µM |  | 
50 | Fc1ccc(-c2nnc(SCCN3CCN(c4ccccc4)CC3)o2)cc1 | None | 250 µM |  |  | 4 µM
51 | Fc1ccc(-c2nnc(SCCN3CCC(F)(F)CC3)o2)cc1 | None |  |  | None | 1 µM
52 | Fc1ccc(-c2nnc(SCCN3CCCC(F)(F)C3)o2)cc1 |  | 250 µM | 250 µM |  | 1 µM
53 | [N-]=[N+]=NCCOCCNC(=O)CCCn1cc(C[S+]([O-])c2nnc(-c3ccc(F)cc3)o2)nn1 (centres unmarked) |  | 500 µM | 500 µM |  | 125 µM
54 | [N-]=[N+]=NCCCOc1ccc(CSc2nnc(-c3ccc(F)cc3)o2)nc1 |  | 31 µM | 16 µM |  | 
55 | C#CCCCOc1ccc(CSc2nnc(-c3ccc(F)cc3)o2)nc1 |  | 31 µM | 16 µM |  | 
56 | [N-]=[N+]=NCCCOc1ccc(C[S+]([O-])c2nnc(-c3ccc(F)cc3)o2)nc1 (centres unmarked) |  | 31 µM | 4 µM |  | 
57 | C#CCCCOc1ccc(C[S+]([O-])c2nnc(-c3ccc(F)cc3)o2)nc1 (centres unmarked) |  | 31 µM | 31 µM |  | 
58 | C#CCOc1ccc(-c2nnc([S+]([O-])Cc3ccccn3)o2)cc1 (centres unmarked) |  | 31 µM | 31 µM |  | 
59 | C#CCCCOc1cccc(-c2nnc(SCc3ccccn3)o2)c1 |  |  | 16 µM | None | 
60 | COc1cc(-c2nnc(SCc3ccccn3)o2)ccc1F |  |  | 16 µM | None | 
61 | C#CCCCOc1cc(-c2nnc(SCc3ccccn3)o2)ccc1OC |  |  | 16 µM | None | 
62 | C#CCCCOc1cc(-c2nnc(SCc3ccccn3)o2)ccc1F |  |  | 64 µM | None | 4 µM
63 | OCCn1cc(CSc2nnc(-c3ccc(Cl)cc3)o2)nn1 |  | 62 µM | 31 µM |  | 
64 | COc1ccc(CSc2nnc(-c3ccc(F)cc3)o2)nc1 |  | 16 to 31 µM |  |  | 
65 | [O-][S+](Cc1ccccn1)c1nnc(-c2ccc(F)cc2)o1 (centres unmarked) |  | 31 µM |  |  | 
66 | COc1ccc(C[S+]([O-])c2nnc(-c3ccc(F)cc3)o2)nc1 (centres unmarked) |  | 31 µM |  |  | 
